Assay results reported in US10010539B2, “Pyrazole, triazole and tetrazole orexin receptor antagonists” (MERCK SHARP & DOHME CORP., priority 2014, dated 2018).

How the values were obtained:
[1] = molecular target: hOXIR (orexin-1 receptor) (Homo sapiens, UniProt O43613); assay: FLIPR Ca2+ Flux Assay, orexin-1 receptor (hOXIR FLIPR); type: cell-based; conditions: CHO cells expressing the orexin-1 receptor (method text: rat; table head: hOXIR); agonist 70 pM Ala-6,12 human orexin-A
Summary of the method: (§1)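 CHO cells expressing rat orexin-1 or human orexin-2 receptor, loaded with Fluo-4AM, preincubated 5 min with compound, then stimulated with Ala-6,12 human orexin-A at 70 pM final in HBSS/20 mM HEPES/0.1% BSA/2.5 mM probenecid, pH 7.4. Fluorescence peak height over 5 min vs agonist-alone gave IC50.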

human orexin-2 receptor = human orexin-2 receptor (Homo sapiens (Human), UniProt O43614); assay: FLIPR Ca2+ Flux Assay, orexin-2 receptor (hOX2R FLIPR); type: cell-based; conditions: CHO cells expressing the human orexin-2 receptor; agonist 70 pM Ala-6,12 human orexin-A
Sequence of human orexin-2 receptor (O43614 whole entry): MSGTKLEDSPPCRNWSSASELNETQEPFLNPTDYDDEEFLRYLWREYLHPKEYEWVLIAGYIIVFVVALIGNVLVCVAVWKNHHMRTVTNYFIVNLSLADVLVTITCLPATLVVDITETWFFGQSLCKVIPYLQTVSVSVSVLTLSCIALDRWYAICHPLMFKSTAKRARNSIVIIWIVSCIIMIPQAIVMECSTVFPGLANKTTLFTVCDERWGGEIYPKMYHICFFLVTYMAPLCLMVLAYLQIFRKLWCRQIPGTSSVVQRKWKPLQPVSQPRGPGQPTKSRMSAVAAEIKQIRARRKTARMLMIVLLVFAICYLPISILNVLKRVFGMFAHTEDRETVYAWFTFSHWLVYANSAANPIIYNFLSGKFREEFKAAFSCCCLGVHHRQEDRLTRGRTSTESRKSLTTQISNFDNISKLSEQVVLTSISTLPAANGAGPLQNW
Summary of the method: as §1

COc1ccc(C(=O)N2C[C@H](n3cc(C(C)(C)O)cn3)CC[C@H]2C)c(C2CCC2)n1 [Example 100, 2-(1-{(3R,6R)-1-[(2-Cyclobutyl-6-methoxypyridin-3-yl)carbonyl]-6-methylpiperidin-3-yl}-1H-pyrazol-4-yl)propan-2-ol]
IC50 [1]: > 10 µM
IC50 (human orexin-2 receptor): 0.0608 µM

Cc1nn([C@@H]2CC[C@@H](C)N(C(=O)c3ccccc3-n3nccn3)C2)cc1C(C)(C)O [Example 107, 2-{3-Methyl-1-[(3R,6R)-6-methyl-1-{[2-(2H-1,2,3-triazol-2-yl)phenyl]carbonyl}piperidin-3-yl]-1H-pyrazol-4-yl}propan-2-ol]
IC50 [1]: 0.339 µM
IC50 (human orexin-2 receptor): 0.0138 µM

COC(=O)c1ccccc1C(=O)N1C[C@H](n2ncc(C(C)(C)O)n2)CC[C@H]1C [Example 20, Methyl 2-((2R,5R)-5-(4-(2-hydroxypropan-2-yl)-2H-1,2,3-triazol-2-yl)-2-methylpiperidine-1-carbonyl)benzoate]
IC50 [1]: > 10 µM
IC50 (human orexin-2 receptor): 0.0246 µM

Cc1nn([C@@H]2CC[C@@H](C)N(C(=O)c3ccccc3OC(F)F)C2)nc1C(C)(C)O [Example 66, 2-{2-[(3R,6R)-1-{[2-(Difluoromethoxy)phenyl]carbonyl}-6-methylpiperidin-3-yl]-5-methyl-2H-1,2,3-triazol-4-yl}propan-2-ol]
IC50 [1]: 3.06 µM
IC50 (human orexin-2 receptor): 0.0096 µM

C[C@@H]1CC[C@@H](n2ncc(C(C)(C)O)n2)CN1C(=O)c1ccccc1C1(C#N)CC1 [Example 1, 1-(2-((2R,5R)-5-(4-(2-Hydroxypropan-2-yl)-2H-1,2,3-triazol-2-yl)-2-methylpiperidine-1-carbonyl)phenyl)cyclopropanecarbonitrile]
IC50 [1]: 1.16 µM
IC50 (human orexin-2 receptor): 0.0138 µM

C[C@@H]1CC[C@@H](n2ncc(C(C)(C)O)n2)CN1C(=O)c1cccnc1OCC(F)F [Example 13, (2-(2,2-Difluoroethoxy)pyridin-3-yl)((2R,5R)-5-(4-(2-hydroxypropan-2-yl)-2H-1,2,3-triazol-2-yl)-2-methylpiperidin-1-yl)methanone]
IC50 [1]: > 10 µM
IC50 (human orexin-2 receptor): 0.0143 µM

C[C@@H]1CC[C@@H](n2ncc(C(C)(C)O)n2)CN1C(=O)c1ccccc1OCC(F)(F)F [Example 16, ((2R,5R)-5-(4-(2-Hydroxypropan-2-yl)-2H-1,2,3-triazol-2-yl)-2-methylpiperidin-1-yl)(2-(2,2,2-trifluoroethoxy)phenyl)methanone]
IC50 [1]: > 10 µM
IC50 (human orexin-2 receptor): 0.0228 µM

Cc1nn([C@@H]2CC[C@@H](C)N(C(=O)c3ccccc3OC(F)(F)F)C2)nc1C(C)(C)O [Example 67, 2-{5-Methyl-2-[(3R,6R)-6-methyl-1-{[2-(trifluoromethoxy)phenyl]carbonyl}piperidin-3-yl]-2H-1,2,3-triazol-4-yl}propan-2-ol]
IC50 [1]: 1.15 µM
IC50 (human orexin-2 receptor): 0.0101 µM

Cc1nn([C@@H]2CC[C@@H](C)N(C(=O)c3ccc(F)cc3-n3nccn3)C2)nc1C(C)(C)O [Example 72, 2-{2-[(3R,6R)-1-{[4-Fluoro-2-(2H-1,2,3-triazol-2-yl)phenyl]carbonyl}-6-methylpiperidin-3-yl]-5-methyl-2H-1,2,3-triazol-4-yl}propan-2-ol]
IC50 [1]: 1.29 µM
IC50 (human orexin-2 receptor): 0.0152 µM

Cc1noc(-c2ccccc2C(=O)N2C[C@H](n3ncc(C(C)(C)O)n3)CC[C@H]2C)n1 [Example 36, 2-{2-[(3R,6R)-6-methyl-1-{[2-(3-methyl-1,2,4-oxadiazol-5-yl)phenyl]carbonyl}piperidin-3-yl]-2H-1,2,3-triazol-4-yl}propan-2-ol]
IC50 [1]: > 10 µM
IC50 (human orexin-2 receptor): 0.0629 µM

Cc1ccc(C(=O)N2C[C@H](n3ncc(C(C)(C)O)n3)CC[C@H]2C)c(-n2nccn2)n1 [Example 55, 2-{2-[(3R,6R)-6-methyl-1-{[6-methyl-2-(2H-1,2,3-triazol-2-yl)pyridin-3-yl]carbonyl}piperidin-3-yl]-2H-1,2,3-triazol-4-yl}propan-2-ol]
IC50 [1]: > 10 µM
IC50 (human orexin-2 receptor): 0.222 µM

C[C@@H]1CC[C@@H](n2cc(C(C)(C)O)cn2)CN1C(=O)c1cccnc1-c1ccccc1 [Example 92, 2-(1-{(3R,6R)-6-Methyl-1-[(2-phenylpyridin-3-yl)carbonyl]piperidin-3-yl}-1H-pyrazol-4-yl)propan-2-ol]
IC50 [1]: > 10 µM
IC50 (human orexin-2 receptor): 0.195 µM

C[C@@H]1CC[C@@H](n2cc(C(C)(C)O)cn2)CN1C(=O)c1ccccc1OC(F)F [Example 84, 2-{1-[(3R,6R)-1-{[2-(Difluoromethoxy)phenyl]carbonyl}-6-methylpiperidin-3-yl]-1H-pyrazol-4-yl}propan-2-ol]
IC50 [1]: > 10 µM
IC50 (human orexin-2 receptor): 0.464 µM

CC(C)Oc1ncccc1C(=O)N1C[C@H](n2cc(C(C)(C)O)cn2)CC[C@H]1C [Example 97, 2-{1-[(3R,6R)-6-Methyl-1-{[2-(1-methylethoxy)pyridin-3-yl]carbonyl}piperidin-3-yl]-1H-pyrazol-4-yl}propan-2-ol]
IC50 [1]: > 10 µM
IC50 (human orexin-2 receptor): 0.24 µM

C[C@@H]1CC[C@@H](n2cc([C@@](C)(O)C(F)(F)F)cn2)CN1C(=O)c1ccccc1-n1nccn1 [Example 105, (2R)-1,1,1-Trifluoro-2-{1-[(3R,6R)-6-methyl-1-{[2-(2H-1,2,3-triazol-2-yl)phenyl]carbonyl}piperidin-3-yl]-1H-pyrazol-4-yl}propan-2-ol]
IC50 [1]: 2.73 µM
IC50 (human orexin-2 receptor): 0.0094 µM

CC(C)c1ccccc1C(=O)N1C[C@H](n2ncc(C(C)(C)O)n2)CC[C@H]1C [Example 5, ((2R,5R)-5-(4-(2-Hydroxypropan-2-yl)-2H-1,2,3-triazol-2-yl)-2-methylpiperidin-1-yl)(2-isopropylphenyl)methanone]
IC50 [1]: > 10 µM
IC50 (human orexin-2 receptor): 0.0713 µM

COc1ccc(C(=O)N2C[C@H](n3ncc(C(C)(C)O)n3)CC[C@H]2C)c(-n2nccn2)c1 [Example 54, 2-{2-[(3R,6R)-1-{[4-methoxy-2-(2H-1,2,3-triazol-2-yl)phenyl]carbonyl}-6-methylpiperidin-3-yl]-2H-1,2,3-triazol-4-yl}propan-2-ol]
IC50 [1]: > 10 µM
IC50 (human orexin-2 receptor): 0.0533 µM

C[C@@H]1CC[C@@H](n2cc(C(C)(C)O)cn2)CN1C(=O)c1ccccc1[C@@H]1CC1(F)F [Example 85, 2-{1-[(3R,6R)-1-({2-[(1S)-2,2-Difluorocyclopropyl]phenyl}carbonyl)-6-methylpiperidin-3-yl]-1H-pyrazol-4-yl}propan-2-ol]
IC50 [1]: 2.64 µM
IC50 (human orexin-2 receptor): 0.0094 µM

C[C@@H]1CC[C@@H](n2ncc(C(C)(C)O)n2)CN1C(=O)c1ccccc1OC(F)(F)F [Example 19, ((2R,5R)-5-(4-(2-Hydroxypropan-2-yl)-2H-1,2,3-triazol-2-yl)-2-methylpiperidin-1-yl)(2-(trifluoromethoxy)phenyl)methanone]
IC50 [1]: 2.8 µM
IC50 (human orexin-2 receptor): 0.0121 µM

Cc1nc(-c2cc(F)ccc2C(=O)N2C[C@H](n3ncc(C(C)(C)O)n3)CC[C@H]2C)no1 [Example 40, 2-{2-[(3R,6R)-1-{[4-fluoro-2-(5-methyl-1,2,4-oxadiazol-3-yl)phenyl]carbonyl}-6-methylpiperidin-3-yl]-2H-1,2,3-triazol-4-yl}propan-2-ol]
IC50 [1]: > 10 µM
IC50 (human orexin-2 receptor): 0.0867 µM

Cc1noc(-c2cc(F)ccc2C(=O)N2C[C@H](n3ncc(C(C)(C)O)n3)CC[C@H]2C)n1 [Example 41, 2-{2-[(3R,6R)-1-{[4-fluoro-2-(3-methyl-1,2,4-oxadiazol-5-yl)phenyl]carbonyl}-6-methylpiperidin-3-yl]-2H-1,2,3-triazol-4-yl}propan-2-ol]
IC50 [1]: > 10 µM
IC50 (human orexin-2 receptor): 0.173 µM

C[C@@H]1CC[C@@H](n2ncc([C@H](O)C(F)(F)F)n2)CN1C(=O)c1ccccc1-n1nccn1 [Example 26, (2-(2H-1,2,3-triazol-2-yl)phenyl) ((2R,5R)-2-methyl-5-(4-((S)-2,2,2-trifluoro-1-hydroxyethyl)-2H-1,2,3-triazol-2-yl)piperidin-1-yl)methanone]
IC50 [1]: > 10 µM
IC50 (human orexin-2 receptor): 0.0867 µM

C[C@@H]1CC[C@@H](n2ncc(C(C)(C)O)n2)CN1C(=O)c1ccccc1[C@@H]1CC1(F)F [Example 22, 2-{2-[(3R,6R)-1-({2-[(1S)-2,2-difluorocyclopropyl]phenyl}carbonyl)-6-methylpiperidin-3-yl]-2H-1,2,3-triazol-4-yl}propan-2-ol]
IC50 [1]: 0.733 µM
IC50 (human orexin-2 receptor): 0.0085 µM

Cc1nn([C@@H]2CC[C@@H](C)N(C(=O)c3ccccc3-n3nccn3)C2)nc1C(C)(C)O [Example 62, 2-{5-Methyl-2-[(3R,6R)-6-methyl-1-{[2-(2H-1,2,3-triazol-2-yl)phenyl]carbonyl}piperidin-3-yl]-2H-1,2,3-triazol-4-yl}propan-2-ol]
IC50 [1]: 1.25 µM
IC50 (human orexin-2 receptor): 0.0125 µM

COCc1ccccc1C(=O)N1C[C@H](n2ncc(C(C)(C)O)n2)CC[C@H]1C [Example 56, 2-{2-[(3R,6R)-1-{[2-(methoxymethyl)phenyl]carbonyl}-6-methylpiperidin-3-yl]-2H-1,2,3-triazol-4-yl}propan-2-ol]
IC50 [1]: > 10 µM
IC50 (human orexin-2 receptor): 0.308 µM

C[C@@H]1CC[C@@H](n2ncc(C(C)(C)O)n2)CN1C(=O)c1ccccc1SC(F)(F)F [Example 11, 2-{2-[(3R,6R)-6-Methyl-1-({2-[(trifluoromethyl)sulfanyl]pheny}carbonyl)piperidin-3-yl]-2H-1,2,3-triazol-4-yl}propan-2-ol]
IC50 [1]: 2.55 µM
IC50 (human orexin-2 receptor): 0.02 µM

C[C@@H]1CC[C@@H](n2cc(C(C)(C)O)cn2)CN1C(=O)c1ccccc1OCC(F)F [Example 79, 2-{1-[(3R,6R)-1-{[2-(2,2-Difluoroethoxy)phenyl]carbonyl}-6-methylpiperidin-3-yl]-1H-pyrazol-4-yl}propan-2-ol]
IC50 [1]: > 10 µM
IC50 (human orexin-2 receptor): 0.127 µM

C[C@@H]1CC[C@@H](n2ncc(C(C)(C)O)n2)CN1C(=O)c1sccc1-n1nccn1 [Example 32, 2-{2-[(3R,6R)-6-methyl-1-{[3-(2H-1,2,3-triazol-2-yl)thiophen-2-yl]carbonyl}piperidin-3-yl]-2H-1,2,3-triazol-4-yl}propan-2-ol]
IC50 [1]: > 10 µM
IC50 (human orexin-2 receptor): 0.0896 µM
